Laboratory results from US7592003B2, “Regulation of toll-like receptors on stem cells” (Oklahoma Medical Research Foundation, priority 2005, dated 2009).

System: LKS^− cells
Test: Serum-free culture of LKS- myeloid/erythroid progenitors (and CMP, GMP subsets), F4/80 by flow cytometry
Format: cell-based, mouse
Settings: 72 h, compared with CSF stimulation
Description: FIGS. 4A-D—Activation of TLRs through MyD88 bypasses normal differentiation cues and drives monocytes/macrophages differentiation of myeloid progenitors. (FIG. 4A) Sorted LKS^− cells from C57BL/6 or MyD88^−/− mice were stimulated with medium alone, LPS (10 μg/ml), Pam3CSK4 (1 μg/ml), M-CSF, or GM-CSF. After 72 h in culture, cells were analyzed by flow cytometry for expression of F4/80. Open histograms depict staining with the isotype matched Ab for F4/80. Percentages given in each histogram indicate the frequencies of F4/80^+ cells and the results are representative of three independent experiments. (FIG. 4B) The bar graph depicts yields, i.e., numbers of F4/80^+ cell recovered per input progenitor. Data represent mean values with standard deviations from triplicate cultures and the results are representative of three independent experiments (*P<0.005). […] After 72 h in culture, cells were analyzed by flow cytometry for expression of F4/80. […] After 24 or 48 h in culture, cells were analyzed by flow cytometry for expression of F4/80. […]
FIG. 13—TLR stimulation causes rapid production of F4/80^+ cells from LKS^− cells. […] Stimulated wells were analyzed after 24 h or 48 h of culture by flow cytometry for expression of F4/80. […]

Substance: Pam3CSK4
- Yields of F4/80+ cells from LKS- cells: consistently a less potent stimulus
